Like-named read-outs stand apart in the source and are kept apart here.
Assays:
[1] = Hydrolysis in Simulated Gastric Fluid (SGF) at 37° C., LC/MS; settings: for Hydrolysis in SGF: hydrolyzed in 6.75 hours; for Oxycodone, Ketal A-D in hydrolysis mixture: oxycodone 2,4-pentanediol ketal isomers + unreacted oxycodone, 2 mg/nil, SGF 37° C.
[2] = format: physicochemical; settings: for time to almost complete hydrolysis: 0.1N HCl 37° C., FIG. 10; for % Oxycodone, % IVA-IVD in hydrolysis mixture: total 1 mg/ml; for % Oxycodone, % IVA-IVD in hydrolysis mixture / % IVC in hydrolysis mixture / % Oxycodone, % IVD in hydrolysis mixture: 0.1 N HCl 37° C.; for relative rate of hydrolysis: comparison of stereoisomers; for % IVC in hydrolysis mixture: isomer IVC tested separately; for % IVC in hydrolysis mixture / % Oxycodone, % IVD in hydrolysis mixture: 1 mg/ml, normalized; for % Oxycodone, % IVD in hydrolysis mixture: isomer IVD tested separately
[3] = unreacted oxycodone + four isomers of Formula IV, 1 mg/ml, 5% acetic acid 100° C.
[4] = Ketal hydrolysis at varying pH, buffers at 37° C.; settings: 1 mg/ml; for hydrolysis of the ketal: Table 13b, 37° C.

SMILES: COc1ccc2c3c1OC1C4(CCC5(O)[C@@H](C2)N(C)CC[C@]315)OCC(C)O4 (some centres unmarked)
- Hydrolysis in SGF [1]: Trace hydrolysis in 6.75 hours

SMILES: COc1ccc2c3c1OC1C4(CCC5[C@@H](C2)N(C)CC[C@@]351)OCCO4 (some centres unmarked)
- Hydrolysis in SGF [1]: ~2% hydrolyzed in 6.75 hours

SMILES: COc1ccc2c3c1OC1C4(CCC5(O)C(C2)N(C)CCC315)OC(C)CC(C)O4 (stereo not drawn) [IVB, oxycodone 2S,4R-pentanediol ketal]
- Oxycodone, Ketal A-D in hydrolysis mixture ([1]; 0 h): 10.3
- Oxycodone, Ketal A-D in hydrolysis mixture ([1]; 0.58 h): 9.8
- Oxycodone, Ketal A-D in hydrolysis mixture ([1]; 1.25 h): 10.4
- Oxycodone, Ketal A-D in hydrolysis mixture ([1]; 2 h): 9.7
- Oxycodone, Ketal A-D in hydrolysis mixture ([1]; 3 h): 10.2
- Oxycodone, Ketal A-D in hydrolysis mixture ([1]; 4 h): 9.1

SMILES: COc1ccc2c3c1O[C@H]1C4(CCC5(O)[C@@H](C2)N(C)CC[C@]315)O[C@@H](C)C[C@H](C)O4 (stereo partly drawn) [IVC, oxycodone 2S,4S-pentanediol ketal]
- time to almost complete hydrolysis [2]: ≤ 8 h
- % Oxycodone, % IVA-IVD in hydrolysis mixture ([2]; 0 h): 35.8%
- % Oxycodone, % IVA-IVD in hydrolysis mixture ([2]; 0.583 h): 29.2%
- % Oxycodone, % IVA-IVD in hydrolysis mixture ([2]; 1.167 h): 26%
- % Oxycodone, % IVA-IVD in hydrolysis mixture ([2]; 1.75 h): 20.6%
- % Oxycodone, % IVA-IVD in hydrolysis mixture ([2]; 2.33 h): 17.7%
- % Oxycodone, % IVA-IVD in hydrolysis mixture ([2]; 2.92 h): 15%
- % Oxycodone, % IVA-IVD in hydrolysis mixture ([2]; 4 h): 10.3%
- % Oxycodone, % IVA-IVD in hydrolysis mixture ([2]; 6.5 h): 4%
- % Oxycodone, % IVA-IVD in hydrolysis mixture ([2]; 9.75 h): 1.5%
- % Oxycodone, % IVA-IVD in hydrolysis mixture ([2]; 13.75 h): 0%
- % Oxycodone, % IVA-IVD in hydrolysis mixture ([2]; 25 h): 0%
- relative rate of hydrolysis [2]: hydrolyzes relatively slowly
- % IVC in hydrolysis mixture ([2]; 0 h): 98.7%
- % IVC in hydrolysis mixture ([2]; 0.75 h): 71.5%
- % IVC in hydrolysis mixture ([2]; 1.5 h): 54%
- % IVC in hydrolysis mixture ([2]; 3.33 h): 18.8%
- % IVC in hydrolysis mixture ([2]; 6 h): 4.7%
- % IVC in hydrolysis mixture ([2]; 8 h): 2.1%
- % Oxycodone, % IVA-IVD in hydrolysis mixture ([3]; 0 h): 36.2%
- % Oxycodone, % IVA-IVD in hydrolysis mixture ([3]; 0.5 h): 12.8%
- % Oxycodone, % IVA-IVD in hydrolysis mixture ([3]; 1 h): 5.9%
- % Oxycodone, % IVA-IVD in hydrolysis mixture ([3]; 2 h): 0.9%
- % Oxycodone, % IVA-IVD in hydrolysis mixture ([3]; 4.35 h): 0%
- % Oxycodone, % IVA-IVD in hydrolysis mixture ([3]; 10 h): 0%

SMILES: COc1ccc2c3c1O[C@H]1C4(CCC5(O)[C@@H](C2)N(C)CC[C@]315)O[C@H](C)C[C@@H](C)O4 (stereo partly drawn) [IVD, oxycodone 2R,4R-pentanediol ketal]
- time to almost complete hydrolysis [2]: ≤ 2 h
- % Oxycodone, % IVA-IVD in hydrolysis mixture ([2]; 0 h): 17.3%
- % Oxycodone, % IVA-IVD in hydrolysis mixture ([2]; 0.583 h): 8.6%
- % Oxycodone, % IVA-IVD in hydrolysis mixture ([2]; 1.167 h): 4.8%
- % Oxycodone, % IVA-IVD in hydrolysis mixture ([2]; 1.75 h): 2.6%
- % Oxycodone, % IVA-IVD in hydrolysis mixture ([2]; 2.33 h): 1.5%
- % Oxycodone, % IVA-IVD in hydrolysis mixture ([2]; 2.92 h): 0.7%
- % Oxycodone, % IVA-IVD in hydrolysis mixture ([2]; 4 h): 0%
- % Oxycodone, % IVA-IVD in hydrolysis mixture ([2]; 6.5 h): 0%
- % Oxycodone, % IVA-IVD in hydrolysis mixture ([2]; 9.75 h): 0%
- % Oxycodone, % IVA-IVD in hydrolysis mixture ([2]; 13.75 h): 0%
- % Oxycodone, % IVA-IVD in hydrolysis mixture ([2]; 25 h): 0%
- relative rate of hydrolysis [2]: hydrolyzes relatively quickly
- % Oxycodone, % IVD in hydrolysis mixture ([2]; 0 h): 99.8%
- % Oxycodone, % IVD in hydrolysis mixture ([2]; 0.17 h): 70%
- % Oxycodone, % IVD in hydrolysis mixture ([2]; 0.33 h): 44.8%
- % Oxycodone, % IVD in hydrolysis mixture ([2]; 1 h): 10.8%
- % Oxycodone, % IVD in hydrolysis mixture ([2]; 2 h): 2%
- hydrolysis of the ketal ([4]; pH 1, 0 h): 0
- hydrolysis of the ketal ([4]; pH 1, 0.33 h): 55.2
- hydrolysis of the ketal ([4]; pH 1, 1 h): 89.2
- hydrolysis of the ketal ([4]; pH 1, 2 h): 98
- hydrolysis of the ketal ([4]; pH 1, 4 h): 100
- hydrolysis of the ketal ([4]; pH 1.5, 0 h): 0
- hydrolysis of the ketal ([4]; pH 1.5, 0.33 h): 14.9
- hydrolysis of the ketal ([4]; pH 1.5, 1 h): 34.4
- hydrolysis of the ketal ([4]; pH 1.5, 2 h): 51.9
- hydrolysis of the ketal ([4]; pH 1.5, 4 h): 80.4
- hydrolysis of the ketal ([4]; pH 2, 0 h): 0
- hydrolysis of the ketal ([4]; pH 2, 0.33 h): 4.6
- hydrolysis of the ketal ([4]; pH 2, 1 h): 13.3
- hydrolysis of the ketal ([4]; pH 2, 2 h): 24.2
- hydrolysis of the ketal ([4]; pH 2, 4 h): 40.9
- hydrolysis of the ketal ([4]; pH 2.5, 0 h): 0
- hydrolysis of the ketal ([4]; pH 2.5, 0.33 h): 0
- hydrolysis of the ketal ([4]; pH 2.5, 1 h): 0
- hydrolysis of the ketal ([4]; pH 2.5, 2 h): 8.4
- hydrolysis of the ketal ([4]; pH 2.5, 4 h): 14.7
- hydrolysis of the ketal ([4]; pH 3, 0 h): 0
- hydrolysis of the ketal ([4]; pH 3, 0.33 h): 0
- hydrolysis of the ketal ([4]; pH 3, 1 h): 0
- hydrolysis of the ketal ([4]; pH 3, 2 h): 3.4
- hydrolysis of the ketal ([4]; pH 3, 4 h): 6.4
- pH at which hydrolysis of the ketal is fastest ([4]; pH buffers 37° C.): fastest at pH 1
- % Oxycodone, % IVA-IVD in hydrolysis mixture ([3]; 0 h): 17.6%
- % Oxycodone, % IVA-IVD in hydrolysis mixture ([3]; 0.5 h): 1.5%
- % Oxycodone, % IVA-IVD in hydrolysis mixture ([3]; 1 h): 0%
- % Oxycodone, % IVA-IVD in hydrolysis mixture ([3]; 2 h): 0%
- % Oxycodone, % IVA-IVD in hydrolysis mixture ([3]; 4.35 h): 0%
- % Oxycodone, % IVA-IVD in hydrolysis mixture ([3]; 10 h): 0%
